Source: US8669291B2, “Phenyl substituted cycloalkylamines as monoamine reuptake inhibitors” (Sunovion Pharmaceuticals Inc., priority 2007, dated 2014)
Read-outs that look alike come from different tables or passages of the source.

Tests used:
[1] = target: T1, human dopamine (DA) reuptake transporter (Homo sapiens, UniProt Q01959); experiment: functional uptake assay, human DA reuptake transporter; format: cell-based
T1 construct: expressed in transfected cells
Description: (§1) Compounds were tested for their inhibition of functional uptake of serotonin (5-HT), norepinephrine (NE), and dopamine (DA), in synaptosomes prepared from rat whole brain, hypothalamus, or corpus striatum, respectively, and/or using recombinant human transporters.

[2] = target: T2, human norepinephrine (NE) reuptake transporter (Homo sapiens, UniProt P23975); experiment: functional uptake assay, human NE reuptake transporter; format: cell-based; conditions: read-out: NE IC50
T2 construct: expressed in transfected cells
T2 sequence (P23975 whole entry): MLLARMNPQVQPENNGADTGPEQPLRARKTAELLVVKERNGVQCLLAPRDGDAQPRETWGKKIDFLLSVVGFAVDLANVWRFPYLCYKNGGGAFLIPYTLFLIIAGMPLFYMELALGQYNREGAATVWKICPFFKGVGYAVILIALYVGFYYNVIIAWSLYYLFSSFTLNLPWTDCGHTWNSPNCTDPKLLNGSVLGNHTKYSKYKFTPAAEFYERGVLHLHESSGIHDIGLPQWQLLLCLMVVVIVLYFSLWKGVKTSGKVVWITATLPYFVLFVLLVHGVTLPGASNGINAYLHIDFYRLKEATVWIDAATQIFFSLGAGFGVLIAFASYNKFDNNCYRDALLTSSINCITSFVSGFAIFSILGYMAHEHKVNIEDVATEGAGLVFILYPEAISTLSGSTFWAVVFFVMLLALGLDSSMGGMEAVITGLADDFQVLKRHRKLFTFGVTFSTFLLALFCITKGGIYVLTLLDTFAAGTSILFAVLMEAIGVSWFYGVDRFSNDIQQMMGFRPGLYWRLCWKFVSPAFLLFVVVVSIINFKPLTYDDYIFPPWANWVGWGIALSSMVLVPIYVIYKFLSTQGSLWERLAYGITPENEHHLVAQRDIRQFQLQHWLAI
Description: as §1

[3] = target: T3, human serotonin (5-HT) reuptake transporter (Homo sapiens, UniProt P31645); experiment: functional uptake assay, human 5-HT reuptake transporter; format: cell-based
T3 construct: expressed in transfected cells
T3 sequence (P31645 whole entry): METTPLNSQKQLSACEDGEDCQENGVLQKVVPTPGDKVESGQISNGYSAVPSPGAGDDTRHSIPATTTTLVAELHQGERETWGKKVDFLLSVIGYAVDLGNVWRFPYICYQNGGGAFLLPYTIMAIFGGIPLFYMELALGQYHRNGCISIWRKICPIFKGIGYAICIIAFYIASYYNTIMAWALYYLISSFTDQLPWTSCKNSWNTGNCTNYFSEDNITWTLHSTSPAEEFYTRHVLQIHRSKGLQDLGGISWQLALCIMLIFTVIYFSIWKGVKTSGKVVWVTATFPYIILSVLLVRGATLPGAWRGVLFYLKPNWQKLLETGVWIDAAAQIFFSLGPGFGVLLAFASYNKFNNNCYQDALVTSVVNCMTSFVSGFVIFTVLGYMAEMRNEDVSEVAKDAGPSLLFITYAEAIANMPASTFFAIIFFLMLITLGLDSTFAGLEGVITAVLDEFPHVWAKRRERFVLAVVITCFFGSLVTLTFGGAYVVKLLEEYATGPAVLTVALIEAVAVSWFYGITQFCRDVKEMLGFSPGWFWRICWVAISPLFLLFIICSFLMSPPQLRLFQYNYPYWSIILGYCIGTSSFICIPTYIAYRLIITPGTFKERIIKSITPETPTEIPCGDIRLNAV
Description: as §1

[4] = human metabolic stability (HLM t1/2); format: in vitro ADME; conditions: human liver microsomes
From the text: 4b. In Vitro PK Data (Human Metabolic Stability, Inhibition of CYP450 Enzymes, Inhibition of HERG Current)

[5] = in vivo; cited from earlier work
serotonin uptake sites = serotonin uptake sites (Homo sapiens, UniProt P31645); conditions: cited from earlier work
serotonin uptake sites, sequence (P31645 whole entry): as above

[6] = Example 4a, human reuptake transporter, read-out: DA IC50
[7] = Example 6 summary of selected in vitro data, read-out: DA IC50
[8] = Example 4a, human reuptake transporter
[9] = Example 6 summary of selected in vitro data
[10] = Example 4a, human reuptake transporter, read-out: 5-HT IC50
[11] = Example 6 summary of selected in vitro data, read-out: 5-HT IC50

T1 sequence (Q01959 whole entry): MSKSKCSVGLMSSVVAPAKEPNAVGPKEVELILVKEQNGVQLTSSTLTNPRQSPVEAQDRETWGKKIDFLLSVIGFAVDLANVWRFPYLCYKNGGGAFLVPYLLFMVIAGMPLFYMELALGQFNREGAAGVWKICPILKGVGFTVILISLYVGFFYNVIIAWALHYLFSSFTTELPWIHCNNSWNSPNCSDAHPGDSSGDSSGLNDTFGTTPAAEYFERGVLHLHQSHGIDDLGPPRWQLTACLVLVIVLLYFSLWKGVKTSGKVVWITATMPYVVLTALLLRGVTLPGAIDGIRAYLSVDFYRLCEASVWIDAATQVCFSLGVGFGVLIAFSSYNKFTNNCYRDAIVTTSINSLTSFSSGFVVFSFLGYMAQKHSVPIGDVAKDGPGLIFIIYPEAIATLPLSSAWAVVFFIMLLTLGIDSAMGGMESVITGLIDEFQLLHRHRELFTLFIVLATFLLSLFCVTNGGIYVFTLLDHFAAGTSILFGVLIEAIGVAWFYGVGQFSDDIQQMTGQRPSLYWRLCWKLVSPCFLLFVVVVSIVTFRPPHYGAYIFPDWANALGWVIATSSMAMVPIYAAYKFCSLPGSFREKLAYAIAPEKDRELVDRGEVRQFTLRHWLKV

| Structure (SMILES) | IC50 [1, 6] | IC50 [1, 7] | IC50 [2, 8] | IC50 [2, 9] | IC50 [3, 10] | IC50 [3, 11] | half-life [4] | immobility in the tail suspension test [5] | affinity for the serotonin uptake sites versus the racemic compound (serotonin uptake sites) | IC50 ([1]; read-out: DA IC50 nM, Example 6 summary of selected in vitro data) | IC50 ([3]; read-out: 5-HT IC50 nM, Example 6 summary of selected in vitro data) |
| --- | --- | --- | --- | --- | --- | --- | --- | --- | --- | --- | --- |
| NCC1CCCCC1(O)c1ccc(Cl)c(Cl)c1 (single isomer, unassigned) [Compound 8, cis-2-(aminomethyl)-1-(3,4-dichlorophenyl)cyclohexanol] | 201 to 1000 nM | 201 to 1000 nM | > 5 µM | > 5 µM | 7000 to 10000 nM | 7000 to 10000 nM |  |  |  |  |  |
| CN(C)C[C@]1(F)CCCC[C@@]1(O)c1ccc(Cl)c(Cl)c1 [Compound 23 A/B] |  | 201 to 1000 nM |  | > 5 µM |  | 2000 to 7000 nM |  |  |  |  |  |
| CN(C)C[C@H]1CCCC[C@]1(O)c1ccc(Cl)c(Cl)c1 (single isomer, unassigned) [Compound 1, cis-1-(3,4-dichlorophenyl)-2-((dimethylamino)methyl)cyclohexanol] | 201 to 1000 nM | 201 to 1000 nM | 0.201 to 1 µM | 0.201 to 1 µM | 1 to 2000 nM | 1 to 2000 nM | 0.417 to 2.92 h |  |  |  |  |
| CN(C)C[C@]1(C)CCCC[C@@]1(O)c1ccc(Cl)c(Cl)c1 [Compound 17 A/B] |  | 201 to 1000 nM |  | > 5 µM |  | 2000 to 7000 nM |  |  |  |  |  |
| Clc1ccc([C@@]23CNC[C@@H]2C3)cc1Cl (single isomer, unassigned) [DOV 21,947, (+)-1-(3,4-dichlorophenyl)-3-azabicyclo[3.1.0]hexane] |  |  |  |  |  |  |  | dose-dependent reduction in immobility | significantly greater affinity |  |  |
| NC[C@@H]1CCCC[C@@]1(O)c1ccc(Cl)c(Cl)c1 (relative stereo) [Compound 9, cis-2-(aminomethyl)-1-(3,4-dichlorophenyl)cyclohexanol] | 10 to 200 nM | 10 to 200 nM | 1 to 5 µM | 1 to 5 µM | > 10000 nM | > 10000 nM |  |  |  |  |  |
| NC[C@]1(F)CCCC[C@@]1(O)c1ccc(Cl)c(Cl)c1 [Compound 21 A/B] |  |  |  | > 5 µM |  |  |  |  |  | 10 to 200 nM | 1 to 2000 nM |
| CNC[C@]1(C)CCCC[C@@]1(O)c1ccc(Cl)c(Cl)c1 [Compound 16 A/B] |  | 10 to 200 nM |  | > 5 µM |  | 1 to 2000 nM |  |  |  |  |  |
| C[C@@]1(CN)CCCC[C@@]1(O)c1ccc(Cl)c(Cl)c1 [Compound 15 A/B] |  | 201 to 1000 nM |  | > 5 µM |  | 2000 to 7000 nM |  |  |  |  |  |
